# Measurements from the supplement of paper PMC10307832.
# Experiments:
# Test in all cases: relative viability (nuclei count vs DMSO), 5 days (fraction); higher = more cells survive
# Zosuquidar + Decitabine = compound: O[C@@H](COc1cccc2ncccc12)CN1CCN([C@@H]2c3ccccc3[C@@H]3[C@H](c4ccccc42)C3(F)F)CC1 [Zosuquidar] + Nc1ncn([C@H]2C[C@H](O)[C@@H](CO)O2)c(=O)n1 [Decitabine] (partner 2 µM)
# In short: (§1)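 Values are medians from duplicate plates. Each reflects relative viability, defined as the nuclei count of treated wells over that of vehicle wells. Lung cancer cell lines in 1536-well plates were pin-tool dosed one day after seeding with one drug alone or with a fixed anchor-drug dose plus five library-drug doses (not always all listed) in √10 steps, then fixed, stained and imaged at 4× after 5 days.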
# Cabozantinib + Olaparib = compound: COc1cc2nccc(Oc3ccc(NC(=O)C4(C(=O)Nc5ccc(F)cc5)CC4)cc3)c2cc1OC [Cabozantinib] + O=C(c1cc(Cc2n[nH]c(=O)c3ccccc23)ccc1F)N1CCN(C(=O)C2CC2)CC1 [Olaparib] (partner 8 µM)
# In short: as §1
# Zosuquidar + Lapatinib = compound: O[C@@H](COc1cccc2ncccc12)CN1CCN([C@@H]2c3ccccc3[C@@H]3[C@H](c4ccccc42)C3(F)F)CC1 [Zosuquidar] + CS(=O)(=O)CCNCc1ccc(-c2ccc3ncnc(Nc4ccc(OCc5cccc(F)c5)c(Cl)c4)c3c2)o1 [Lapatinib] (partner 2 µM)
# In short: as §1
# [1] = compound: COc1cc2nccc(Oc3ccc(NC(=O)C4(C(=O)Nc5ccc(F)cc5)CC4)cc3)c2cc1OC [Cabozantinib] + CCNC(=O)c1noc(-c2cc(C(C)C)c(O)cc2O)c1-c1ccc(CN2CCOCC2)cc1 [Luminespib] (partner 0.01 µM)
# In short: as §1
Cell Line,relative viability (Zosuquidar + Decitabine; first compound 0.01 µM),relative viability (Zosuquidar + Decitabine; first compound 0.3162 µM),relative viability (Zosuquidar + Decitabine; first compound 1 µM),relative viability (Cabozantinib + Olaparib; first compound 0.06325 µM),relative viability (Cabozantinib + Olaparib; first compound 0.2 µM),relative viability (Cabozantinib + Olaparib; first compound 0.6325 µM),relative viability (Cabozantinib + Olaparib; first compound 2 µM),relative viability (Zosuquidar + Lapatinib; first compound 0.01 µM),relative viability (Zosuquidar + Lapatinib; first compound 0.03162 µM),relative viability (Zosuquidar + Lapatinib; first compound 0.3162 µM),relative viability (Zosuquidar + Lapatinib; first compound 1 µM),relative viability (Zosuquidar + Decitabine; first compound 0.03162 µM),relative viability (Zosuquidar + Decitabine; first compound 0.1 µM),relative viability (Cabozantinib + Olaparib; first compound 0.02 µM),relative viability (Zosuquidar + Lapatinib; first compound 0.1 µM),relative viability ([1]; first compound 0.02 µM),relative viability ([1]; first compound 0.06325 µM),relative viability ([1]; first compound 0.6325 µM),relative viability ([1]; first compound 2 µM),relative viability ([1]; first compound 0.2 µM)
HCC-78,0.75,0.804,0.637,0.886,0.753,0.443,0.405,0.866,1.03,0.893,0.572,,,,,,,,,
HCC-366,0.322,0.515,0.277,0.464,0.395,0.4,0.335,1.08,1.08,1.01,1.15,0.291,0.429,0.597,1.15,,,,,
HCC-827,0.302,0.307,0.295,0.786,,0.624,0.562,0.183,0.246,0.19,0.246,0.367,0.266,0.643,0.178,0.898,1.02,0.824,0.565,
HOP-62,0.215,0.203,0.21,0.406,0.608,0.602,0.575,0.862,1.05,1.07,1.07,0.223,0.25,0.435,0.951,1.03,1,0.881,0.838,0.902
IA-LM,,,,0.849,0.801,1.06,0.925,,0.713,1.01,0.881,,,0.817,0.802,,,,,
LC-2-ad,0.878,0.725,0.776,0.735,0.847,0.829,0.691,0.994,1.05,0.989,0.958,0.922,0.876,0.754,0.993,,1.1,0.914,0.956,1.03
LCLC-97TM1,0.27,0.253,0.224,0.492,0.332,0.342,0.407,1.07,1.13,1.27,0.881,0.217,,0.483,,0.784,0.817,0.805,0.638,0.875
LCLC-103H,0.803,0.739,0.772,0.796,0.779,0.79,0.729,,,,,0.724,0.787,0.77,,1.07,0.962,0.983,0.905,1.03
LK-2,0.247,0.372,0.304,0.791,0.815,0.697,0.667,0.985,0.892,1.18,0.946,0.361,0.28,0.57,0.923,,0.176,0.198,0.196,
LOU-NH91,0.805,0.834,0.761,0.984,0.681,0.903,0.925,0.717,0.851,0.942,0.751,0.814,0.703,0.96,0.701,0.363,0.358,0.385,0.271,
LU99A,0.835,0.917,1.04,0.258,0.283,0.281,0.261,0.918,0.954,1.05,0.982,1.09,0.946,0.304,1.11,0.283,0.268,0.196,0.261,0.238
LXF-289,0.357,0.418,0.403,1.22,1.06,0.979,1.07,0.876,0.908,0.913,0.923,0.364,0.367,1.13,0.872,0.683,0.764,0.715,0.662,0.689
NCI-H441,0.234,0.248,0.251,0.664,0.615,0.59,0.703,,,,,0.249,0.235,0.787,,0.326,0.404,0.324,0.375,0.306
NCI-H522,0.681,0.618,0.657,0.667,0.584,0.625,0.648,,,,,0.624,0.643,0.714,,1.15,1.41,1.07,1.23,1.56
NCI-H1299,,,,0.988,0.964,0.971,1.09,0.971,0.981,1.01,0.958,,,0.969,0.944,,,,,
NCI-H1563,,,,,,,,0.99,0.81,1.04,0.855,,,,0.813,0.507,0.52,0.527,0.531,0.508
NCI-H1623,,,,,,,,,,,,,,,,0.53,0.497,0.446,0.492,0.47
NCI-H1648,0.427,0.455,0.489,0.995,,1.02,0.651,,,,,0.612,0.434,1.17,,,,,,
NCI-H1703,,,,0.232,0.224,0.215,0.149,1.17,1.27,1.45,1.16,,,0.398,0.96,,,,,
NCI-H2228,,,,0.924,0.742,0.602,0.573,1.2,0.937,1.06,1.21,,,0.769,0.956,0.162,0.167,0.122,0.134,0.175
NCI-H2342,0.703,0.738,0.717,0.454,0.746,0.495,0.379,,,,,0.801,0.721,0.436,,0.673,0.837,0.604,0.591,0.864
SW 900,0.478,0.394,0.421,0.941,0.664,0.636,0.684,,,,,0.466,,0.877,,0.17,0.19,0.177,0.166,0.2
